The test deals with patients with moderate to severe active rheumatoid arthritis. Description: Phase II RA study, Cohort 1 (inadequate response to MTX): clinical efficacy (ACR50, DAS28-3-CRP). Type of test: in vivo, human. The note with it: for DAS 28-3 (CRP) Adjusted Mean / DAS 28-3 (CRP) Difference (d): Week 12; for ACR50 Responders / ACR50 Weighted Difference vs Placebo: Week 12 Day 84; for DAS 28-3 (CRP) Difference (d): versus placebo. The source says:
A Two-Cohort Randomized Phase II, Double-Blind, Parallel Group Study in Patients with Active Rheumatoid Arthritis Evaluating the Efficacy and Safety of Fenebrutinib Compared with Placebo and Adalimumab in Patients with an Inadequate Response to Previous Methotrexate Therapy (Cohort 1) and Compared with Placebo in Patients with an Inadequate Response or Intolerance to Previous TNF Therapy (Cohort 2)
This study was designed to evaluate the efficacy and safety of fenebrutinib compared with placebo (Cohorts 1 and 2) and compared with adalimumab (ADA) (Cohort 1), each in combination with methotrexate (MTX), in patients with moderate to severe active rheumatoid arthritis (RA). Specific objectives and corresponding endpoints for the study are outlined below.
The study was a multicenter, Phase II, randomized, double-blind, placebo-controlled, active comparator (Cohort 1 only), parallel-group, dose-ranging study to evaluate the efficacy and safety of fenebrutinib in patients with moderate to severe active RA and an inadequate response to previous MTX therapy (Cohort 1) or MTX and TNF therapy who may have also had exposure to no more than one non-TNF inhibitor biologic (Cohort 2). Moderate to severe active RA was defined by ≥6 tender/painful joints on motion (68 joint count) and ≥6 swollen joints (66 joint count) at both screening and Day 1 (randomization), as well as a high sensitivity C-reactive protein (hsCRP)≥0. 400 mg/dL for Cohort 1 a hsCRP≥0.650 mg/dL for Cohort 2 at screening.
The study enrolled 578 patients. […] After a screening period of up to 28 days, patients in both cohorts received blinded study drug (oral fenebrutinib or matching placebo) for 12 weeks, after which they had the option to enter an 8 week follow-up period or enroll into an open-label extension (OLE) study. In addition to study drug, patients in Cohort 1 were also treated with subcutaneous (SC) comparatory drug (ADA or placebo).
Cohort 1 treatment regimens. […]
Disease Activity Score 28. The DAS 28-4 (CRP) and the DAS 28-4 (ESR) are calculated as follows. Assessments: (i) Tender joint count of 28 joints (TJC28), square-root transformed; (ii) Swollen joint count of 28 joints (SJC28), square-root transformed; (iii) Acute-phase reactant (erythrocyte sedimentation rate [ESR mm/hr] or high sensitivity C-reactive protein [hsCRP mg/L]), log transformed; (iv) Patient's global assessment of disease activity on visual analog scale (0-100 mm).
The DAS 28 is calculated according to the following formulas: DAS 28(4)−ESR=0.56×SQRT(TJC28)+0.28SQRT(SJC28)+0.70×ln(ESR)+0.014×PtGA DAS 28(4)−CRP=0.56×SQRT(TJC28)+0.28SQRT(SJC28)+0.36×ln(CRP+1)+0.014×PtGA+0.96 • Total score: Range, 0.49-9.07 • Disease remission≤2.6 • Disease activity: Low≤3.2; Moderate d>3.2 and ≤5.1; High>5.1 (PtGA=patient's global assessment of disease activity; ln=natural logarithm; SQRT=square root)
ACR Assessments. The ACR's definition for calculating improvement in RA (ACR20) is calculated as a 20% improvement in tender and swollen joint counts and a 20% improvement in 3 of the 5 remaining ACR-core set measures: patient and physician global assessments, pain, disability, and an acute-phase reactant. Similarly, ACR50 and ACR70 are calculated with the respective percent improvements. The Sponsor, on the basis of the component parts, will calculate the ACR score.
The specific components of the ACR Assessments used in this study are as follows: Tender/Painful Joint Count (68), Swollen Joint Count (66), Patient's Assessment of Arthritis Pain, Patient's Global Assessment of Arthritis, Physician's Global Assessment of Arthritis, CRP and HAQ-DI.

The structures appear in SMILES notation.

For `C[C@H]1CN(C2COC2)CCN1c1ccc(Nc2cc(-c3ccnc(N4CCn5c(cc6c5CC(C)(C)C6)C4=O)c3CO)cn(C)c2=O)nc1` [fenebrutinib, (S)-2-(3′-(hydroxymethyl)-1-methyl-5-((5-(2-methyl-4-(oxetan-3-yl)piperazin-1-yl)pyridin-2-yl)amino)-6-oxo-1,6-dihydro-[3,4′-bipyridin]-2′-yl)-7,7-dimethyl-2,3,4,6,7,8-hexahydro-1H-cyclopenta[4,5]pyrrolo[1,2-a]pyrazin-1-one], under “Cohort 1, 50 mg QD”, the “DAS 28-3 (CRP) Adjusted Mean” value was −1.54, the “ACR50 Responders” value is given as 7 (17.5%), the “ACR50 Weighted Difference vs Placebo” value came out at 8.00 and the “DAS 28-3 (CRP) Difference (d)” value is reported as −0.36. For the setting “Cohort 1, 150 mg QD”, the “DAS 28-3 (CRP) Adjusted Mean” value is −1.74, the “ACR50 Responders” value was 30 (27.5%), the “ACR50 Weighted Difference vs Placebo” value stood at 12.93 and the “DAS 28-3 (CRP) Difference (d)” value was −0.57.

The record behind these values is patent US12544372B2, “Methods of treating rheumatoid arthritis, chronic spontaneous urticaria, and systemic lupus erythematosis using an inhibitor of Bruton's tyrosine kinase” (Genentech, Inc., priority 2019, dated 2026).
